# Legend:
# [1] = molecular target: T1, 5-hydroxytryptamine receptor 1A (Homo sapiens, UniProt P08908); assay: biochemical
# T1 sequence (P08908 whole entry): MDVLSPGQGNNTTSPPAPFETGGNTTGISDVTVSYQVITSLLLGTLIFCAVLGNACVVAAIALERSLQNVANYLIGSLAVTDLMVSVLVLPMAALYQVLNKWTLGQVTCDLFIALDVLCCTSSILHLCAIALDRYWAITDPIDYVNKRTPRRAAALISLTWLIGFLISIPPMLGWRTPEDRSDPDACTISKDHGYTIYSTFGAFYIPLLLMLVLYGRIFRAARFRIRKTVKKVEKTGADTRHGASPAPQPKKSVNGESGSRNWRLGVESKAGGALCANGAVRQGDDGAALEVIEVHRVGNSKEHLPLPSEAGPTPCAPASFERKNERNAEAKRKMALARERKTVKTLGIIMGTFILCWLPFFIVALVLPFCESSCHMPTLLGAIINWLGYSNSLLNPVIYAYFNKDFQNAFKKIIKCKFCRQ
# Rattus norvegicus [2] = assay: Effective dose on the 8-OH-DPAT induced response at 3 mg/kg sc in presence of 8-OH-DPAT (Effective dose value for 8-OH-DPAT = 0.32); assay type: functional; conditions: route subcutaneous
# [3] = molecular target: T1, 5-hydroxytryptamine receptor 1A
# [4] = molecular target: T1, 5-hydroxytryptamine receptor 1A; remark: listed apart in the source
# Rattus norvegicus [5] = assay: Effective dose on the 8-OH-DPAT induced response at 3 mg/kg sc in presence of 8-OH-DPAT (Effective dose value for 8-OH-DPAT = 0.18); assay type: functional; conditions: route subcutaneous
# Rattus norvegicus [6] = assay: Effective dose on the 8-OH-DPAT induced response at 3 mg/kg sc in presence of 8-OH-DPAT (Effective dose value for 8-OH-DPAT = 0.17); assay type: functional; conditions: route subcutaneous
# Rattus norvegicus [7] = assay: Effective dose on the 8-OH-DPAT induced response at 3 mg/kg sc in presence of 8-OH-DPAT (Effective dose value for 8-OH-DPAT = 0.25); assay type: functional; conditions: route subcutaneous
Ki [1] [nM],IC50 [4] [nM],SMILES,other results
9.2,–,C[C@@H](CN(C(=O)c1ccc(C#N)cc1)c1ccccn1)N1CCN(c2cccc3c2OCCO3)CC1,–
1.9,32.1,C[C@H](CN(C(=O)c1ccc(C(F)(F)F)cc1)c1ccccn1)N1CCN(c2cccc3c2OCCO3)CC1,ED50 (Rattus norvegicus [2]): 0.94 mg/kg; IC50 [3]: 6.2 nM
–,42,C[C@H](CN(C(=O)c1ccc(C#N)cc1)c1ccccn1)N1CCN(c2cccc3c2OCCO3)CC1 [LECOZOTAN],ED50 (Rattus norvegicus [5]): 3.68 mg/kg
–,–,C[C@H](CN(C(=O)c1ccc(Cl)cc1)c1ccccn1)N1CCN(c2cccc3c2OCCO3)CC1,ED50 (Rattus norvegicus [6]): 1.82 mg/kg
3.4,–,C[C@@H](CN(C(=O)c1ccc([N+](=O)[O-])cc1)c1ccccn1)N1CCN(c2cccc3c2OCCO3)CC1,–
1,23.2,C[C@H](CN(C(=O)c1ccc([N+](=O)[O-])cc1)c1ccccn1)N1CCN(c2cccc3c2OCCO3)CC1,ED50 (Rattus norvegicus [7]): 3.19 mg/kg; IC50 [3]: 4.3 nM
8.6,–,C[C@@H](CN(C(=O)c1ccc(C(F)(F)F)cc1)c1ccccn1)N1CCN(c2cccc3c2OCCO3)CC1,–

# — ChEMBL document CHEMBL1139501, “Synthesis and biological evaluation of benzodioxanylpiperazine derivatives as potent serotonin 5-HT(1A) antagonists: the discovery of Lecozotan” (J Med Chem, 2005)
